The structures appear in SMILES notation. Values joined by “and” are separate entries in the source; they are usually repeats but may differ in a detail not shown here. Equal values may be shown once.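 Five concentrations, 48 hours, 96-well plates. Abbreviation: GI50, concentration required for 50% inhibition of growth. TGI denotes the concentration required for complete inhibition of growth.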

What all share (assay): NCI-60 cell line screen, 48 h
Assay [1] has as its system A549 NSCLC.
In assay [2] the test system is IGROV1 ovarian.
Assay [3] deals with KM20L2 colon.
The test system of assay [4] is LXFL 529 NSCLC.
Assay [5] concerns OVCAR-3 ovarian.
Assay [6] relates to SNB-19 CNS.
For assay [7], the system named is U251 CNS.
The subject of assay [8] is UACC-257 melanoma.
In assay [9] the test system is NCI/ADR-RES ovarian.
For assay [10], the system named is PC-3 prostate.

Consider `COc1ccc(CN2C(=O)C(Cc3cc(OC)c(OC)c(C)c3OC)N(C(=O)OC(C)C)C(=O)/C2=C/c2cc(OC)c(OC)c(C)c2OC)cc1` (configuration not stated), for which the TGI in assay [1], in assay [2], in assay [3], in assay [4], in assay [5] and in [6] was greater than 100 µM each time. Further, the TGI in [7] and in assay [8] was greater than 100 µM each time.

As to `O=C1OC(c2ccccc2)C2CC3CC4(CCC3CN12)OCCO4` (configuration not stated), the TGI in assay [1], in assay [2], in assay [3], in [4], in assay [5] and in assay [6] was greater than 100 µM in each case. Besides, the TGI in assay [7] and in assay [8] was greater than 100 µM in each case.

As to `Cc1cc(C)nc(NS(=O)(=O)c2ccc(NC(=O)c3cccc4c(Nc5ccc(S(=O)(=O)Nc6nc(C)cc(C)n6)cc5)c5ccccc5nc34)cc2)n1`, the TGI is 68.2 µM in assay [1]; greater than 100 µM in assay [2]; 42.9 µM in [3]; 70.3 µM in assay [4]; 39.8 µM in [5]; 82.4 µM in [6]. Also, the TGI stood at 38.6 µM in [7] and 43.2 µM in assay [8].

For the compound `NC(=O)c1nnn(Cc2cc(Cl)c(C(=O)c3ccc(Cl)cc3)c(Cl)c2)c1N`, the GI50 in assay [1] was greater than 9.09 µM; in assay [2], greater than 9.09 µM; in assay [3], 2.79 µM; in assay [5] it was greater than 9.09 µM; in [6] it was greater than 9.09 µM; in [7], greater than 9.09 µM. The GI50 in [8] is 6.96 µM. The TGI in assay [1] was > 9.09 µM and 37.1 µM; in assay [2], > 9.09 µM and 44.2 µM; in [3], > 9.09 µM and 17.4 µM; in assay [4], > 9.09 µM and 21.1 µM; in [9], greater than 66.4 µM; in assay [5], > 9.09 µM and 25 µM. The TGI in assay [10] is greater than 50.2 µM; in assay [6], > 9.09 µM and 30.5 µM; in assay [7], > 9.09 µM and 38.1 µM; in assay [8], > 9.09 µM and 33.7 µM.

Take `O=c1c2cc(Br)ccc2[nH]c(=S)n1-c1ccc(Br)cc1`: the TGI in assay [1], in [2], in assay [3], in assay [4], in assay [5] and in assay [6] was greater than 100 µM in each case. Moreover, the TGI in [7] and in assay [8] was greater than 100 µM throughout.

For `Cc1cc2cc(Cl)ccc2nc1C(=O)c1ccccc1`, the TGI in [1], in [2], in assay [3], in assay [4], in [5] and in assay [6] was greater than 100 µM in each case. Further, the TGI in [7] and in [8] was greater than 100 µM in each case.

As for `O=C(CCc1nnc2s/c(=C\c3ccc4c(c3)OCO4)c(=O)n12)Nc1cc(Cl)ccc1Cl`, the TGI in assay [1], in assay [2], in [3], in assay [4], in assay [5] and in assay [6] was greater than 100 µM in each case. In addition, the TGI in assay [7] and in assay [8] was greater than 100 µM throughout.

Turning to `CCOC(=O)NC(=O)c1cn(CCCCCOC(=O)NCCCCCCNC(=O)OCCCCCn2cc(C(=O)NC(=O)OCC)c(=O)[nH]c2=O)c(=O)[nH]c1=O`, the TGI in assay [1], in assay [2], in assay [3], in assay [4], in [5] and in assay [6] was greater than 100 µM each time. Also, the TGI in assay [7] and in assay [8] was greater than 100 µM in each case.

On to `O=c1oc2c3ccc4ccccc4c3n(CCN3CCOCC3)c2c2ccccc12`, for which the TGI in assay [1], in assay [2], in assay [3], in assay [4], in assay [5] and in [6] was greater than 100 µM in each case. The TGI in [8] was greater than 100 µM.

As to `COc1ccc2c(c1)CCc1cnn(C3OC(COC(C)=O)C(OC(C)=O)C(OC(C)=O)C3OC(C)=O)c1-2` (configuration not stated), the TGI is greater than 100 µM in assay [1]; 51.8 µM in assay [3]; 41.4 µM in [4]; 56.7 µM in assay [5]; greater than 100 µM in assay [6]; 65.6 µM in [7]. For the same compound, in [8], the TGI was greater than 100 µM.

Take `COC(=O)CCC(=O)CC(=O)C(=O)Nc1ccc(F)cc1`: the TGI in assay [1], in assay [2], in assay [3], in assay [4], in assay [5] and in [6] was greater than 100 µM throughout. For the same compound, the TGI in assay [7] and in [8] was greater than 100 µM throughout.

As for `[N-]=[N+]=Nc1ccccc1-[n+]1noc([O-])c1Br`, the TGI in assay [1], in assay [2], in [3], in assay [4], in assay [5] and in assay [6] was greater than 100 µM throughout. Also, the TGI in assay [7] and in assay [8] was greater than 100 µM in each case.

On to `COC(=O)CSc1ccccc1`, for which the TGI in [1], in assay [2], in [3], in [4], in assay [5] and in assay [6] was greater than 100 µM throughout. Moreover, the TGI in [7] and in [8] was greater than 100 µM each time.

Regarding `N#Cc1ccc(/C=N\N2C(=O)c3ccccc3C2=O)cc1`, the TGI in assay [1], in [2], in assay [3], in assay [4], in assay [5] and in [6] was greater than 100 µM each time. Further, in assay [8], the TGI was greater than 100 µM.

`Cn1c(=O)nc2n(-c3ccc(F)cc3)c3ccccc3nc-2c1=O`: the TGI in assay [1] was 48.6 µM; in assay [2] it was 56.5 µM; in assay [3] it was 48.7 µM; in [4] it was greater than 100 µM; in assay [5], 11 µM; in [6], 37.4 µM. Also, the values for the TGI in assay [7] and in [8] were 71.4 µM and 28.5 µM, respectively.

For the compound `COc1cc(C2c3cc4c(cc3[C@H](NC(=O)c3cccs3)C3COC(=O)[C@H]23)OCO4)cc(OC)c1OC` (some centres not stated), the TGI was 37.1 µM in assay [1]; greater than 100 µM in assay [2]; 0.0396 µM in [3]; 47.2 µM in assay [4]; 0.459 µM in assay [9]; greater than 100 µM in [5]. Moreover, the TGI in [10] is 0.0236 µM; in assay [6], greater than 100 µM; in assay [7], 0.865 µM; in assay [8] it was greater than 100 µM.

`COC(=O)NNc1c([N+](=O)[O-])cnn(-c2ccccc2)c1=O`: the TGI was determined as 28.2 µM in assay [1]; 36.2 µM in assay [2]; 7.78 µM in assay [3]; 3.16 µM in assay [4]; 3.56 µM in assay [5]; 3.21 µM in assay [10]. Further, the results for the TGI in assay [6], in assay [7] and in assay [8] were 23.2 µM, 4.59 µM and 6.33 µM, respectively.

With `COc1ccc2nc3cc(Cl)ccc3c(NCCC(=O)OCC(O)C(O)C(O[C@H](C)C(=O)NC(C)C(=O)NC(CCC(N)=O)C(=O)OCc3ccccc3)C(C=O)NC(C)=O)c2c1` (some centres not stated), the TGI in assay [1] was determined as 32.4 µM; in assay [2] it was 30.2 µM; in [3], 32.7 µM; in [4], 31.2 µM; in assay [5], 34.7 µM; in [6], 62.1 µM. Further, the TGI in [7] is 35.7 µM; in [8], greater than 100 µM.

Turning to `COc1ccc(C(=O)/C(=N/Nc2ccccc2)c2ccc(OC)cc2)cc1`, the TGI is greater than 100 µM in assay [1]; greater than 100 µM in [2]; 51.5 µM in assay [3]; greater than 100 µM in assay [4]; greater than 100 µM in assay [6]; greater than 100 µM in assay [7]. The TGI in assay [8] is greater than 100 µM.

`COc1ccc(NC(=O)CC/C(CC(=O)c2ccccc2Cl)=N\Nc2nnc(C)n2N)cc1`: the TGI in [1], in assay [2], in assay [3], in assay [4], in assay [6] and in assay [7] was greater than 100 µM each time. This compound showed a TGI in assay [8] greater than 100 µM.

As to `O=C(CC1(O)C(=O)Nc2c(Cl)cccc21)c1ccccc1` (configuration not stated), the TGI in assay [1], in assay [3], in [4], in [5], in assay [6] and in [7] was greater than 100 µM each time. In assay [8], this compound registered a TGI greater than 100 µM.

For `CN(C)c1ccc(/C=C/C(=O)c2ccccc2)cc1Br`, the TGI in [1] was greater than 100 µM; in [2], 48.5 µM; in assay [3] it was 57.6 µM; in [4], 28.8 µM; in [5] it was 35.5 µM; in [6], 41.3 µM. In addition, the TGI in [7] stood at 33.6 µM; in [8], 52.6 µM.

The record behind these values is PubChem BioAssay (NCI).
